{"source": "patent US20220268691A1", "about": "“MICROSCOPE ADAPTOR AND SAMPLE MOUNT FOR MAGNETICALLY ACTUATING SAMPLE” (University of Southern California, priority 2021, published 2022)", "key": {"Pancreatic spheroids": {"system": "Pancreatic spheroids", "experiment": "Magnetogel toxicity study (viability of pancreatic spheroids in M-gel)", "assay_type": "cell-based", "conditions": "M-gel/cells treated with 10 μL of gemcitabine; 96-well culture plate; sextuplet", "procedure": "Pancreatic spheroids were grown on a 96-well culture plate. All measurements were performed in sextuplet (6×). The viability from these wells was compared against two controls: Matrigel/cells only, and M-gel/cells treated with 10 μL of gemcitabine (GEM), a common chemotherapeutic agent (as shown in FIG. 2B)."}, "PDAC": {"system": "PDAC", "conditions": "GEM-based treatments; pancreatic cancer patients; cited from earlier work"}}, "data": [{"compound": "Nc1ccn([C@@H]2O[C@H](CO)[C@@H](O)C2(F)F)c(=O)n1", "note": "[GEM, gemcitabine]", "values": [{"measurement": "viability of cells (GEM control)", "setting": "Pancreatic spheroids", "result": "cells killed"}, {"measurement": "response to treatment observed in patients", "setting": "PDAC", "result": "37 % of patients"}]}]}
